Like-named read-outs stand apart in the source and are kept apart here.
Experiments:
[1] = Tissue distribution in mice after oral administration; format: in vivo, female C57Bl/6 mice; conditions: oral 10 mg/kg; for concentration at 0.5 h / concentration at 1 h / concentration at 2 h / concentration at 3 h / concentration at 5 h / concentration at 7 h / concentration at 24 h: female, C57Bl/6, mouse
Procedure: Limited tissue (liver, intestine) distribution studies were conducted in female C57Bl/6 mice ([…]) at 0.5, 1, 2, 3, 5, 7, and 24 hours following oral administration of compound of Formula 1 at a dose of 10 mg/kg formulated as a solution in 20% HP-β-CD. The plasma and the following tissues were harvested for compound concentration analysis: liver, whole ileum, and whole colon. The ileum and colon were flushed with saline prior to homogenization. Feces were collected over a period of 24 hours. All tissues (except plasma) were homogenized in sterile water and compound of Formula I concentrations were determined using LC-MS/MS. […] The concentration of compound of Formula I in feces was 125.6 μg at 24 hours post dose.

[2] = system: IL-12/IL-18-induced pSTAT-3 in the colon; assay: IL-12/IL-18-induced colonic pSTAT-3 response in mice after oral dosing; format: in vivo, C57BL/6 mice; conditions: Mus musculus, read-out: Percent Inhibition of colonic pSTAT-3
Text: To understand the potential of local, enteric-selective JAK inhibitors to inhibit STAT signaling in colon tissue, two pharmacokinetic/pharmacodynamic (PK/PD) studies were developed. The first involved the combined intraperitoneal administration of IL-12 and IL-18 in mice which induces a systemic inflammatory response resulting in activation of the JAK/STAT pathway in colonic tissue which can be monitored by robust phosphorylation of STAT3 three hours after challenge. The second PK/PD model involves the ex vivo stimulation of mouse colon tissue with a cocktail of cytokines (IL-22, IL-6, and IFNα), measuring the inhibition of STAT3 phosphorylation after oral dosing of compound of Formula I.
The combined intraperitoneal administration of IL-12 and IL-18 induces colonic inflammation in mice (Chikano S, et al. Gut 47(6),779-786 (2000) “IL-18 and IL-12 induce intestinal inflammation and fatty liver in mice in an IFN-gamma dependent manner”; Nold-Petry C, et al. Front Immunol. 8, 1531(2017) “Gp96 Antagonist Protects in Murine-Intestinal-Inflammation”). An inflammatory response in colonic tissue can be monitored by robust phosphorylation of STAT3 three hours after challenge with IL 12/IL-18. In this non-GLP study, the effect of the orally administered compound of Formula I was evaluated on STAT3 responses in mouse colonic tissue induced by systemic dosing of both IL-12 and IL 18.
C57BL/6 mice (6 to 8 weeks old) were randomized by weight and assigned to various treatment groups for each of two studies. Mice were challenged intraperitoneally with a combination of IL-12 (250 ng) and IL-18 (1 μg). To examine the effect of compound of Formula I on IL-12/IL-18-induced pSTAT-3 response, groups of mice were orally dosed with compound of Formula I 1 hour prior to IL-12/IL-18 challenge. Three hours after IL-12/IL-18 challenge, mice were euthanized with CO2 asphyxiation, blood was collected via cardiocentesis for PK analysis, and colon tissues were collected for measuring pSTAT-3 response and drug levels. Mice dosed orally with 20% 2-hydroxypropyl-β-cyclodextrin (HP-β-CD) were used as vehicle controls. Two independent studies (S-1 and S-2) were conducted to examine the effect of compound of Formula I on IL-12/IL-18-induced colonic pSTAT-3 response in mice. […] Serum levels were measured at 30 minutes and 4 hours (terminal) after dosing. […] Colon drug levels were measured 4 hours after dosing. […] Colonic exposure of compound of Formula I increased in a dose-dependent fashion. At 25 mg/kg dose, colonic exposure of compound of Formula I was 30814.5±5552.5 ng/g and 18256.5±4118.8 ng/g tissue. […] Oral dosing of compound of Formula I in mice resulted, as shown in other studies, in minimum systemic exposure and lack of consistent dose-dependent pharmacodynamic responses in the blood.
Percent inhibition of colonic pSTAT-3 was determined using log transformed data following outlier removal.

JAK1/Tyk2 = molecular target: T1, JAK1/Tyk2 (Mus musculus, UniProt P52332+Q9R117); assay: IFNα-induced pSTAT-3 in murine whole blood; format: cell-based
T1 construct: endogenous in cells; host or cells: murine whole blood
Procedure: Mouse whole blood IC50 values were also generated to build an understanding of the relationship between systemic exposures and target engagement in murine models. In murine whole blood, the in vitro activity of compound of Formula I in the inhibition of IFNα-(JAK1/Tyk2), IL-21-(JAK1/3), and IL-12-(JAK2/Tyk2) induced pSTAT responses in murine whole blood was measured. […] No reliable IC50 could be reported for inhibition of IL-12 induced pSTAT-4 in murine whole blood.

[3] = colon, mean ± SD, read-out: Colon concentration
[4] = ileum, mean ± SD, read-out: Ileum concentration
[5] = liver, mean ± SD, read-out: Liver concentration
[6] = plasma, mean ± SD, read-out: Plasma concentration

T1 sequence (P52332 whole entry): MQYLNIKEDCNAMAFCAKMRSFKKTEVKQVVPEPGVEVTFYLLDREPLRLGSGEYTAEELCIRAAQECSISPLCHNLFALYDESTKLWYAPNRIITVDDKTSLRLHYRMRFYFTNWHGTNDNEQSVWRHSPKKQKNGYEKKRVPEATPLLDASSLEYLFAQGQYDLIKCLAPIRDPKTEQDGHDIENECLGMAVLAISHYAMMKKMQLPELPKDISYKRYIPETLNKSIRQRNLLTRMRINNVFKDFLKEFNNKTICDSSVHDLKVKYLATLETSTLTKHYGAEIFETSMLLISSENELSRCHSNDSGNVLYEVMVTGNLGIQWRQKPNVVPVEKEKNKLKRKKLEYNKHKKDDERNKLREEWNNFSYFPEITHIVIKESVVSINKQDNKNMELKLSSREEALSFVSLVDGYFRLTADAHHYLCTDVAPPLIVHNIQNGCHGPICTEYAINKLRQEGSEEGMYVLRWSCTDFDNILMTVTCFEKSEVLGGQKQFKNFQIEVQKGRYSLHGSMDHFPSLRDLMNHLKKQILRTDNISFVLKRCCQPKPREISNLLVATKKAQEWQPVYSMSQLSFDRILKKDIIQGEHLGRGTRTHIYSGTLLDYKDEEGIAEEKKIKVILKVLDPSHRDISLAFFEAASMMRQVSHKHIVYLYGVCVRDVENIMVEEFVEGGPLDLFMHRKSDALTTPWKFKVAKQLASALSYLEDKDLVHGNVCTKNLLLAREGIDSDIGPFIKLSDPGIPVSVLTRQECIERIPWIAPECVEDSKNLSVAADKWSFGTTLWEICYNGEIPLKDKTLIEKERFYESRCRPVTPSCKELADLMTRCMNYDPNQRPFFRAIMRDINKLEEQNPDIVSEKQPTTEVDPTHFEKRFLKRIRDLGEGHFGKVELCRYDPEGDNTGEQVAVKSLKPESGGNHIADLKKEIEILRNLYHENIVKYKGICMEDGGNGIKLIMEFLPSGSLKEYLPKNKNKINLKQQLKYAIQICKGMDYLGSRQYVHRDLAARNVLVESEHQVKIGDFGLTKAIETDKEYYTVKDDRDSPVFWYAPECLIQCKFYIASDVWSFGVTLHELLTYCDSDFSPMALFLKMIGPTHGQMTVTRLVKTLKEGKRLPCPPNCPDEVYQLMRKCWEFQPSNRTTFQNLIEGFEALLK
T1 sequence (Q9R117 whole entry): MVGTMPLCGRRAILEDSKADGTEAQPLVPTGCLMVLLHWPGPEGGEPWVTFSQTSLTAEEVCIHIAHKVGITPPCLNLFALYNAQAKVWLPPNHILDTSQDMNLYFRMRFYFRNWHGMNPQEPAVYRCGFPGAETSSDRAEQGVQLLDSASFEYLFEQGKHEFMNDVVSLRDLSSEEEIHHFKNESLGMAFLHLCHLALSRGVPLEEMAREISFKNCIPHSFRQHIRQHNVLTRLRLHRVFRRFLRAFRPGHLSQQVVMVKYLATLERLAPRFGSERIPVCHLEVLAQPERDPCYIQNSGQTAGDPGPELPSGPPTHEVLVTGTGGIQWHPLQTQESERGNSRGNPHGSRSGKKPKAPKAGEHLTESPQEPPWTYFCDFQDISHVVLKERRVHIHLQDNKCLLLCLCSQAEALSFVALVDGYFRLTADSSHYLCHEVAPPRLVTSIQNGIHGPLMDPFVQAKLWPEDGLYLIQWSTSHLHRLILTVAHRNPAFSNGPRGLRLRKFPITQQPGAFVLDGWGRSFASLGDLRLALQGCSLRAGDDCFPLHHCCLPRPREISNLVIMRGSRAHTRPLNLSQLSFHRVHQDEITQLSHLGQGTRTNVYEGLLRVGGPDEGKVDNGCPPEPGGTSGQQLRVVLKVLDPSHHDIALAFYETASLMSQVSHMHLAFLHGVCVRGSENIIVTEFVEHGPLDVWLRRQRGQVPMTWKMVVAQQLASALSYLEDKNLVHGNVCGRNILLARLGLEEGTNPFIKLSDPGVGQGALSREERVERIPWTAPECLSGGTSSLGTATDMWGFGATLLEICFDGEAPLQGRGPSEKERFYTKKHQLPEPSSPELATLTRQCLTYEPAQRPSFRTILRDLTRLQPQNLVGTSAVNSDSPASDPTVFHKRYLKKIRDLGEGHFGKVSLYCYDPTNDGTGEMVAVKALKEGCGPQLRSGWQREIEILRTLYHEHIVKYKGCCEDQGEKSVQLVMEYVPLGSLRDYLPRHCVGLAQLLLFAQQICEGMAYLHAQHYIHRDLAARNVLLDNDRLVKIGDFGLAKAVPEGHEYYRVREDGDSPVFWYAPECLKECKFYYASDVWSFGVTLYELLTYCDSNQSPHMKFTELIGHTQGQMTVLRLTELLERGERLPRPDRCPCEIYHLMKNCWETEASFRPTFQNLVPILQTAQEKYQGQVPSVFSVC
T1 sequence (P33896 27-590 partner): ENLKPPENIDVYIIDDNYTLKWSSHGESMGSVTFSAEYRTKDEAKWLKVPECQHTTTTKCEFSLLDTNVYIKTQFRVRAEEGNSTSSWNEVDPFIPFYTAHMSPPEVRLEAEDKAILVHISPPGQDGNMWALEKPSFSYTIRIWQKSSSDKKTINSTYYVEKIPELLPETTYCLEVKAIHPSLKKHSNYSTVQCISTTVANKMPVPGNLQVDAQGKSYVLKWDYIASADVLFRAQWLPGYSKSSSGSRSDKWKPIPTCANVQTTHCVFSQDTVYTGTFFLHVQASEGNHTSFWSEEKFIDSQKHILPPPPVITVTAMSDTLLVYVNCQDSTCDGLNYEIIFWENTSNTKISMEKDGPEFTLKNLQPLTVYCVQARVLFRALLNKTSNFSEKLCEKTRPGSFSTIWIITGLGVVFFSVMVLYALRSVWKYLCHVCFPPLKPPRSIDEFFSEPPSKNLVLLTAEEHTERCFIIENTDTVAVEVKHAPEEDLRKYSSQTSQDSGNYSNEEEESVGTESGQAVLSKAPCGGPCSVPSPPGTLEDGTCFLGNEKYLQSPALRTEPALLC
T1 sequence (O35664 22-513 partner): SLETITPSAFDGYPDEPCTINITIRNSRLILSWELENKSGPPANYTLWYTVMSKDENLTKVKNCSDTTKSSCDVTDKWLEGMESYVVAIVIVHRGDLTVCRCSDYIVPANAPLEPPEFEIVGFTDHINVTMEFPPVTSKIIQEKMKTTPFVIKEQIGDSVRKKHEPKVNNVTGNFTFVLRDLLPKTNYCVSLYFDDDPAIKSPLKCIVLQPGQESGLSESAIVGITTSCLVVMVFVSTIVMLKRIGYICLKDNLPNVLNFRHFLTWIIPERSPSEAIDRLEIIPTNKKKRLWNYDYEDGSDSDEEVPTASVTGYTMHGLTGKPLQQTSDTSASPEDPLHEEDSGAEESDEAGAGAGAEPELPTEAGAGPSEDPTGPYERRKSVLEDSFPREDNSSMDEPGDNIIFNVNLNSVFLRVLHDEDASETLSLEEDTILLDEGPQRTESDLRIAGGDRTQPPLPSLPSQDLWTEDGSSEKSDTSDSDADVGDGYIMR

concentration at 0.5 h ([1]; colon, N = 2, read-out: Colon concentration): 94.2 ng/g
concentration at 1 h [1, 3]: 5110 ng/g
concentration at 2 h [1, 3]: 6620 ng/g
concentration at 3 h [1, 3]: 7760 ng/g
concentration at 5 h [1, 3]: 8450 ng/g
concentration at 7 h [1, 3]: 3790 ng/g
concentration at 24 h ([1]; colon, 24 h, mean ± SD, read-out: Colon concentration): 195 ± 120 ng/g
concentration at 0.5 h [1, 4]: 73.8 ± 11.6 ng/g
concentration at 1 h [1, 4]: 22700 ng/g
concentration at 2 h [1, 4]: 12000 ng/g
concentration at 3 h [1, 4]: 16400 ng/g
concentration at 5 h [1, 4]: 3440 ng/g
concentration at 7 h [1, 4]: 2250 ng/g
concentration at 24 h ([1]; ileum, 24 h, mean ± SD, read-out: Ileum concentration): 87.6 ± 17.8 ng/g
concentration at 0.5 h [1, 5]: 34.8 ± 16.5 ng/g
concentration at 1 h [1, 5]: 189 ± 304 ng/g
concentration at 2 h [1, 5]: 84.5 ± 114 ng/g
concentration at 3 h [1, 5]: 23.3 ± 0.8 ng/g
concentration at 5 h [1, 5]: 16.8 ± 8.8 ng/g
concentration at 7 h ([1]; liver, N = 2, read-out: Liver concentration): 24 ng/g
concentration at 0.5 h [1, 6]: 3.5 ± 1.8 ng/mL
concentration at 1 h [1, 6]: 2.6 ± 0.9 ng/mL
concentration at 2 h [1, 6]: 2.3 ± 0.2 ng/mL
concentration at 3 h [1, 6]: 3.2 ± 1.7 ng/mL
concentration at 5 h [1, 6]: 2.1 ± 0.9 ng/mL
concentration at 7 h [1, 6]: 6 ± 4.9 ng/mL
Liver concentration ([1]; 24 h, BLOQ (1 ng/mL)): BLOQ^b
Plasma concentration ([1]; 24 h, BLOQ (1 ng/mL)): BLOQ^b
concentration in feces ([1]; 24 hours post dose): 125.6 µg
IC50 (JAK1/Tyk2): 299 nM
Compound: CC(C)(O)CNC(=O)Cc1nc2cnc3[nH]ccc3c2n1[C@H]1CC[C@H](CC#N)CC1 [Compound of Formula I, 2-(1-((1r,4r)-4-(Cyanomethyl)cyclohexyl)-1,6-dihydroimidazo[4,5-d]pyrrolo[2,3-b]pyridin-2-yl)-N-(2-hydroxy-2-methylpropyl)acetamide]
inhibition at 10 mg/kg ([2]; Study S-1, oral 10 mg/kg): 3.9%
inhibition at 25 mg/kg ([2]; Study S-1, oral 25 mg/kg): 25.8%
inhibition at 50 mg/kg ([2]; Study S-1, oral 50 mg/kg): 49.7%
inhibition at 10 mg/kg ([2]; Study S-2, oral 10 mg/kg): 33.1%
inhibition at 25 mg/kg ([2]; Study S-2, oral 25 mg/kg): 61.2%
inhibition at 50 mg/kg ([2]; Study S-2, oral 50 mg/kg): 66.1%

— US12390451B2, “Small molecule inhibitor of the JAK family of kinases” (Janssen Pharmaceutica NV, priority 2021, dated 2025)
